Measured values reported in patent US12433908B2, “Use of nicotinamide riboside, nicotinic acid riboside, and nicotinamide mononucleotide, reduced nicotinyl compounds, and nicotinoyl compound derivatives in infant formula for healthy development” (ChromaDex, Inc., priority 2016, dated 2025).

Legend:
milk proteins = assay: WaterLOGSY NMR direct binding of 15N-labeled NR to milk proteins; details: increasing additions of milk
Text: Whey protein fraction and casein protein have been identified as leading candidates to bind directly to and stabilize nicotinamide riboside (NR, I) in milk. The addition of these proteins in particular (either alone or in combination with other proteins) in order to stabilize nicotinamide riboside (NR, I) in liquid constitutes another embodiment of a method of delivery of the present invention. […] In this experiment, Water-Ligand Observed via Gradient Spectroscopy (WaterLOGSY NMR) was used to detect direct binding of stable, isotope-labeled (^15N) nicotinamide riboside (NR, I) to milk proteins. This is visualized as a concentration-dependent shift in the nicotinamide riboside (NR, I) spectra with increasing additions of milk. The concentric shapes shifts from left to right are the results of addition of no milk, 150 mL of milk, and […] of milk, respectively.

[1] = CBC analysis of piglets given NR solution; assay type: in vivo, piglets (Yorkshire/Hampshire crossbred)
Text: Sixteen (n=16) Yorkshire/Hampshire crossbred piglets were obtained from the University of California, Davis Swine Teaching and Research Center and received on lactation day (“LD”) 14. Prior to arrive, the piglets were processed by the suppler between 1-3 days of age by administration of iron and an antibiotic ([…] for swine) as is common practice at the University of California, Davis Swine Facility. It is not common practice at the University of California, Davis Swine Facility to give a second dose of iron and antibiotics unless it becomes necessary. The piglets were from two litters (litters 15 and 17), weaned at 17 days of age, and randomly placed into one of two groups balanced for litter, sex, and weight. The animals were not acclimated to the facility at arrival and were subsequently acclimated to the test diet administration system. The piglets were weaned into a temperature-controlled room (approximately 27-29° C.) that contained 10 adjacent pens. The piglets were group-housed in the nursery room at the Swine Facility, which is an enclosed room with access restricted to trained personnel. The two groups were separated by one pen containing piglets of similar age. Each morning enough nicotinamide riboside (NR, I) in water solution was prepared for that day's dose administration according to the dose preparation protocol. At least 5 mL of prepared dose was reserved and immediately frozen after preparation each day for analysis of nicotinamide riboside (NR, I) for the purpose of confirming stability of the dose material. The doses were stored at refrigeration temperature while not in use. Nicotinamide riboside (NR, I) was dosed once per day in the morning and at the same time each day. Piglets in the control group received the same volume of plain water and were dosed on the same schedule. Starting on Day 1, animals in the nicotinamide riboside (NR, I) group were dosed once daily (in the morning) with 277 mg nicotinamide riboside (NR, I) per pig resuspended in water for seven days. After one week, animals were dosed once daily with 342 mg nicotinamide riboside (NR, I) per pig delivered in 2.5 mL for seven days. For Days 1 and 2, the nicotinamide riboside (NR, I) solution was prepared by resuspending 2770 mg nicotinamide riboside (NR, I) in 50 mL water, and 5 mL of this solution was delivered to each pig by squirting it into the back of the mouth using a 10 mL syringe with a piece of tubing attached to the end. To reduce the volume to more efficiently deliver the nicotinamide riboside (NR, I) solution, the 2770 mg was resuspended in 25 mL water and 2.5 mL of the solution was squirted into the back of the mouth of each pig using a 3 mL syringe for Days 3-7. For Days 8-14, 3420 mg nicotinamide riboside (NR, I) was resuspended in 25 mL water and 2.5 mL of this solution was delivered to each pig. Each day prior to dosing, 2.5 mL of the nicotinamide riboside (NR, I) (5 mL on Days 1 and 2) were placed into a separate tube and frozen. Blood was collected from each pig via jugular venipuncture on Days 1, 8, and 14. In each instance, blood was collected prior to dosing with nicotinamide riboside (NR, I). On Day 1, the sow was removed from the piglets for approximately three hours prior to sample collection. On Days 8 and 14, feed was removed from the animals' pens 12 hours prior to sample collection. Blood was collected into purple-top vacutainers for CBC analysis and into red-top vacutainers for blood chemistry analysis. CBC analysis was performed at IDEXX Laboratories in West Sacramento, California using the Sysmex XT-iV Vet Hematology Autoanalyzer (Sysmex America Inc., Lincolnshire, Illinois). Red-top tubes were spun to collect serum and the serum frozen. Frozen aliquots (500 μL) were submitted to the University of California, Davis Veterinary medicine Teaching Hospital Clinical Diagnostic Laboratory for Blood Chemistry Analysis using the Cobas 6000 C501 Clinical Chemistry Analyzer (Roche Diagnostics, Indianapolis, IN). […]

[2] = Wk 1, 277 mg/pig once daily oral
[3] = Wk 2, 342 mg/pig once daily oral Days 8-14

direct binding to milk proteins (milk proteins): binds to proteins in milk | Basophils, % ([1]; Baseline, before dosing): 0.57% | Basophils, count ([1]; Baseline, before dosing): 60 cells/μL | Eosinophils, % ([1]; Baseline, before dosing): 1.11% | Eosinophils, count ([1]; Baseline, before dosing): 108 cells/μL | HCT ([1]; Baseline, before dosing): 29.9% | HGB ([1]; Baseline, before dosing): 10.4 g/dL | Lymphocytes, % ([1]; Baseline, before dosing): 65.8% | Lymphocytes, count ([1]; Baseline, before dosing): 6.48 ×10^3 cells/μL | MCH ([1]; Baseline, before dosing): 16.0 pg | MCHC ([1]; Baseline, before dosing): 34.3 g/dL | MCV ([1]; Baseline, before dosing): 46.2 fL | Monocytes, % ([1]; Baseline, before dosing): 6.17% | Monocytes, count ([1]; Baseline, before dosing): 596 cells/μL | Neutrophil/Lymphocyte ([1]; Baseline, before dosing): 0.41 | Neutrophils, % ([1]; Baseline, before dosing): 26.3% | Neutrophils, count ([1]; Baseline, before dosing): 2.47 ×10^3 cells/μL | RBC ([1]; Baseline, before dosing): 6.45 M/μL | WBC ([1]; Baseline, before dosing): 9.7 ×10^3 cells/μL | Basophils, % [1, 2]: 0.49% | Basophils, count [1, 2]: 68 cells/μL | Eosinophils, % [1, 2]: 1.52% | Eosinophils, count [1, 2]: 213 cells/μL | HCT [1, 2]: 27.3% | HGB [1, 2]: 9.4 g/dL | Lymphocytes, % [1, 2]: 51.0% | Lymphocytes, count [1, 2]: 6.34 ×10^3 cells/μL | MCH [1, 2]: 15.4 pg | MCHC [1, 2]: 34.7 g/dL | MCV [1, 2]: 44.7 fL | Monocytes, % [1, 2]: 6.01% | Monocytes, count [1, 2]: 803 cells/μL | Neutrophil/Lymphocyte [1, 2]: 0.85 | Neutrophils, % [1, 2]: 40.9% | Neutrophils, count [1, 2]: 5.41 ×10^3 cells/μL | RBC [1, 2]: 6.06 M/μL | WBC [1, 2]: 12.8 ×10^3 cells/μL | Basophils, % [1, 3]: 0.30% | Basophils, count [1, 3]: 61 cells/μL | Eosinophils, % [1, 3]: 1.07% | Eosinophils, count [1, 3]: 179 cells/μL | HCT [1, 3]: 26% | HGB [1, 3]: 9.4 g/dL | Lymphocytes, % [1, 3]: 54.9% | Lymphocytes, count [1, 3]: 10.31 ×10^3 cells/μL | MCH [1, 3]: 15.5 pg | MCHC [1, 3]: 35.2 g/dL | MCV [1, 3]: 44.2 fL | Monocytes, % [1, 3]: 6.80% | Monocytes, count [1, 3]: 1336 cells/μL | Neutrophil/Lymphocyte [1, 3]: 0.73 | Neutrophils, % [1, 3]: 36.9% | Neutrophils, count [1, 3]: 7.59 ×10^3 cells/μL | RBC [1, 3]: 6.11 M/μL | WBC [1, 3]: 19.5 ×10^3 cells/μL | CBC and serum chemistries, NR vs. control ([1]; baseline and weekly for the 2-week intervention): no statistically significant differences
Compound: NC(=O)c1ccc[n+]([C@@H]2O[C@H](CO)[C@@H](O)[C@H]2O)c1 [NR, Nicotinamide riboside]
